Assay type in all cases: biochemical
One experiment deals with Pim-2 (Homo sapiens (Human), UniProt Q9P1W9). Description: Pim-2 kinase assay. The following applies: 1 mM ATP; read-out: Pim2 IC50. As to the method: Pim-2 kinase assay—20 μL reactions were run in white 384 well polystyrene plates dotted with 0.8 μL compound/DMSO in the assay buffer (50 mM Tris, pH 7.5, 0.01% Tween-20, 5 mM mgCl2, 0.01% BSA, 5 mM DTT), containing […] Fluorescein-labeled CREBtide peptide substrate (Invitrogen PV3508), 1 mM ATP, and 1 nM enzyme (Invitrogen PV3649) for 2 h at 25° C. Reactions were stopped by addition of 10 μL TR-FRET Dilution Buffer (Invitrogen PV3574) with 30 mM EDTA and 1.5 nM LanthaScreen Tb-CREB pSer133 antibody (Invitrogen PV3566). After 30 min. incubation at room temperature, plates were read on a PHERAstar FS plate reader (BMG Labtech).
Pim-2, sequence (Q9P1W9 whole entry): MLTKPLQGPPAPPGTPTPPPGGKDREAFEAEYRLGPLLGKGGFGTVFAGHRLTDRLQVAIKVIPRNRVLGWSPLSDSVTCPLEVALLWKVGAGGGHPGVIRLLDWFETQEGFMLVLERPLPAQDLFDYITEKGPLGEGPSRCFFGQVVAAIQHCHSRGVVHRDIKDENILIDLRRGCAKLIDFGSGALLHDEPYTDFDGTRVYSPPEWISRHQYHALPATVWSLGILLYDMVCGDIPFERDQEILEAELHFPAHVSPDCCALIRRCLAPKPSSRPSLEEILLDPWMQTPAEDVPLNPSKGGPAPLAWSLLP

A further experiment deals with Pim-1 (Homo sapiens (Human), UniProt P11309). In words: Pim-1 kinase assay. The following applies: 1 mM ATP; read-out: Pim1 IC50. As to the method: Supplementation of the STOP buffer with beads and stopping the reactions were done under reduced light. Prior to the stopping reactions STOP buffer with beads was preincubated for 1 h in the dark at room temperature. After stopping the reactions, plates were incubated for 1 h in the dark at room temperature before reading on a PHERAstar FS plate reader (BMG Labtech) under reduced light.
Pim-1, sequence (P11309 whole entry): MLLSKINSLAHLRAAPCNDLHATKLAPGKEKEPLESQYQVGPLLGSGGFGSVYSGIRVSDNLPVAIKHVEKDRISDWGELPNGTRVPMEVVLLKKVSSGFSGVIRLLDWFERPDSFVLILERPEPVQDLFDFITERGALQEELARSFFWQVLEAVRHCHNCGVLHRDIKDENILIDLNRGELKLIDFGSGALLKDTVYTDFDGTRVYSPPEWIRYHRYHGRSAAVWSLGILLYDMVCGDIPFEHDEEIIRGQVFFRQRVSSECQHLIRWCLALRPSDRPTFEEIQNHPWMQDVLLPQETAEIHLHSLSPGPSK

In a further experiment the target is Pim-3 (Homo sapiens (Human), UniProt Q86V86). Description: Pim-3 kinase assay. To be noted: 1 mM ATP; read-out: Pim3 IC50. As to the method:
Pim-1 and Pim-3 kinase assays-20 μL reactions were run in white 384 well polystyrene plates dotted with 0.8 μL compound/DMSO in the assay buffer (50 mM Tris, pH 7.5, 0.01% Tween-20, 5 mM mgCl2, 0.01% BSA, 5 mM DTT), containing […] Biotin-labeled BAD peptide substrate (AnaSpec 62269), 1 mM ATP, and 2.5 pM (Pim-1, Invitrogen PV3503) or 1.25 pM (Pim-3, Millipore 14-738) enzyme for 1 h at 25° C. Reactions were stopped by addition of 10 μL STOP Buffer (150 mM Tris, pH=7.5, 150 mM NaCl, 75 mM EDTA, 0.01% Tween-20, 0.3% BSA,) supplemented with Phospho-Bad (Ser112) Antibody (Cell Signaling 9291) diluted 666-fold, and Streptavidin donor beads (PerkinElmer 6760002) along with Protein-A acceptor beads (PerkinElmer 6760137) at 15 μg/mL each. Supplementation of the STOP buffer with beads and stopping the reactions were done under reduced light. Prior to the stopping reactions STOP buffer with beads was preincubated for 1 h in the dark at room temperature. After stopping the reactions, plates were incubated for 1 h in the dark at room temperature before reading on a PHERAstar FS plate reader (BMG Labtech) under reduced light.

The structures appear in SMILES notation. pIC50: −log10 of the molar value.

On to `C[C@@H]1C[C@H](N)CN(c2ccncc2NCc2ccc(F)c(-c3ccc4sccc4c3)n2)C1` [Example 85, 4-[(3S,5R)-3-Amino-5-methylpiperidin-1-yl]-N-{[6-(1-benzothien-5-yl)-5-fluoropyridin-2-yl]methyl}pyridin-3-amine], for which the results for the negative-log IC50 (pIC50) on Pim-2, at Pim-1 and at Pim-3 were 6.00 to 7.00, more than 8.00 and not below 8.00, respectively.

In the case of `C[C@@H]1C[C@H](N)CN(c2ccncc2NCc2ccc(F)c(-c3c(F)cc(CC(C)(C)O)cc3F)n2)C1` [Example 13, 1-(4-{6-[({4-[(3S,5R)-3-Amino-5-methylpiperidin-1-yl]pyridin-3-yl}amino)methyl]-3-fluoropyridin-2-yl}-3,5-difluorophenyl)-2-methylpropan-2-ol], the pIC50 (as a rule, the negative decadic logarithm of the IC50, by convention in mol/L) at Pim-2 is not below 7.00; on Pim-1 it was more than 8.00; at Pim-3, not below 8.00.

In the case of `COc1cccc(F)c1-c1nc(CNc2cnccc2N2C[C@@H](N)[C@H](O)[C@@H](C)C2)ccc1F` [Example 15, (3R,4R,5S)-3-Amino-1-(3-(((5-fluoro-6-(2-fluoro-6-methoxyphenyl)pyridin-2-yl)methyl)amino)pyridin-4-yl)-5-methylpiperidin-4-ol], the negative logarithm of the IC50 (pIC50) at Pim-2 was 6.00 to 7.00; on Pim-1 it was more than 8.00; on Pim-3, not below 8.00.

`C[C@H]1CN(c2ccncc2NCc2ccc(F)c(-c3c(F)ccc(C4(O)CC4)c3F)n2)C[C@@H](N)[C@@H]1O` [Example 9, (3R,4R,5S)-3-Amino-1-(3-(((6-(2,6-difluoro-3-(1-hydroxycyclopropyl)phenyl)-5-fluoropyridin-2-yl)methyl)amino)pyridin-4-yl)-5-methylpiperidin-4-ol]: the pIC50 at Pim-2 is 6.00 to 7.00; at Pim-1 it was more than 8.00; at Pim-3 it was not below 8.00.

In the case of `C[C@@H]1C[C@H](N)CN(c2ccncc2NCc2nc(-c3c(F)cccc3F)c(F)cc2N)C1` [Example 108, 2-[({4-[(3S,5R)-3-Amino-5-methylpiperidin-1-yl]pyridin-3-yl}amino)methyl]-6-(2,6-difluorophenyl)-5-fluoropyridin-3-amine], the values for the pIC50 at Pim-2, on Pim-1 and at Pim-3 were not below 7.00, more than 8.00 and not below 8.00, respectively.

`C[C@H]1CN(c2ccncc2NCc2ccc(F)c(-c3c(F)cc(C4(O)CCC4)cc3F)n2)C[C@@H](N)[C@@H]1O` [Example 2, (3R,4R,5S)-3-Amino-1-(3-(((6-(2,6-difluoro-4-(1-hydroxycyclobutyl)phenyl)-5-fluoropyridin-2-yl)methyl)amino)pyridin-4-yl)-5-methylpiperidin-4-ol]: the pIC50 at Pim-2 is not below 7.00; at Pim-1, more than 8.00; at Pim-3, not below 8.00.

Regarding `C[C@@H]1C[C@H](N)CN(c2ccncc2NCc2ccc(F)c(-c3c(F)cc(C4(O)CCC4)cc3F)c2)C1` [Example 26, 1-(5′-((4-((3S,5R)-3-Amino-5-methylpiperidin-1-yl)pyridin-3-ylamino)methyl)-2,2′,6-trifluorobiphenyl-4-yl)cyclobutanol], the pIC50 at Pim-2 is 6.00 to 7.00; on Pim-1, more than 8.00; at Pim-3, not below 8.00.

Take `C[C@@H]1C[C@H](N)CN(c2ccncc2NCc2ccc(F)c(-c3c(F)cc(CN4CC[C@H](F)C4)cc3F)n2)C1` [Example 56, 4-((3S,5R)-3-amino-5-methylpiperidin-1-yl)-N-((6-(2,6-difluoro-4-(((S)-3-fluoropyrrolidin-1-yl)methyl)phenyl)-5-fluoropyridin-2-yl)methyl)pyridin-3-amine]: the pIC50 is not below 7.00 at Pim-2, more than 8.00 at Pim-1 and not below 8.00 on Pim-3.

Take `C[C@@H]1C[C@H](N)CN(c2ccncc2NCc2ccc(F)c(-c3c(F)cccc3C#N)n2)C1` [Example 22, 2-(6-((4-((3S,5R)-3-Amino-5-methylpiperidin-1-yl)pyridin-3-ylamino)methyl)-3-fluoropyridin-2-yl)-3-fluorobenzonitrile]: the results for the pIC50 on Pim-2, on Pim-1 and on Pim-3 were 6.00 to 7.00, more than 8.00 and not below 8.00, respectively.

Consider `CNCc1cc(F)c(-c2nc(CNc3cnccc3N3C[C@@H](N)[C@H](O)[C@@H](C)C3)ccc2F)c(F)c1` [Example 40, (3R,4R,5S)-3-Amino-1-(3-(((6-(2,6-difluoro-4-((methylamino)methyl)phenyl)-5-fluoropyridin-2-yl)methyl)amino)pyridin-4-yl)-5-methylpiperidin-4-ol], for which the pIC50 was 6.00 to 7.00 on Pim-2, more than 8.00 at Pim-1 and not below 8.00 on Pim-3.

Consider `C[C@@H]1C[C@H](N)C[C@H](c2ccncc2NCc2ccc(F)c(-c3c(F)cccc3F)n2)C1` [Example 66, 4-[(1R,3S,5S)-3-Amino-5-methylcyclohexyl]-N-{[6-(2,6-difluorophenyl)-5-fluoropyridin-2-yl]methyl}pyridin-3-amine], for which the pIC50 on Pim-2 was 6.00 to 7.00; at Pim-1 it was more than 8.00; at Pim-3 it was not below 8.00.

Take `C[C@@H]1C[C@H](N)CN(c2ccncc2NCc2ccc(F)c(-c3ccc(C#N)cc3F)n2)C1` [Example 84, 4-{6-[({4-[(3S,5R)-3-Amino-5-methylpiperidin-1-yl]pyridin-3-yl}amino)methyl]-3-fluoropyridin-2-yl}-3-fluorobenzonitrile]: the pIC50 on Pim-2 is 6.00 to 7.00; on Pim-1, more than 8.00; at Pim-3, not below 8.00.

Consider `C[C@@H]1C[C@H](N)CN(c2c(NCc3ccc(F)c(-c4c(F)cccc4F)n3)cnc3c2CC[C@H]3O)C1` (single isomer, unassigned) [Example 87 (Diastereoisomer 2)], for which the pIC50 is 6.00 to 7.00 at Pim-2, more than 8.00 at Pim-1 and 7.30 to 8.00 at Pim-3.

Consider `C[C@@H]1C[C@H](N)CN(c2ccncc2NCc2ccc(F)c(-c3c(F)cc(O[C@H]4CCOC4)cc3F)n2)C1` [Example 76, 4-[(3S,5R)-3-Amino-5-methylpiperidin-1-yl]-N-[(6-{2,6-difluoro-4-[(3S)-tetrahydrofuran-3-yloxy]phenyl}-5-fluoropyridin-2-yl)methyl]pyridin-3-amine], for which the pIC50 at Pim-2 was not below 7.00; on Pim-1 it was more than 8.00; at Pim-3, not below 8.00.

For `COc1cccc(F)c1-c1nc(CNc2cnccc2N2C[C@H](C)C[C@H](N)C2)ccc1F` [Example 20, 4-((3S,5R)-3-Amino-5-methylpiperidin-1-yl)-N-((5-fluoro-6-(2-fluoro-6-methoxyphenyl)pyridin-2-yl)methyl)pyridin-3-amine], the pIC50 at Pim-2 is 5.00 to 6.00; at Pim-1, more than 8.00; at Pim-3, 7.30 to 8.00.

For `C[C@H]1CN(c2ccncc2NCc2ccc3ccc(-c4ccn5ccnc5c4)cc3n2)C[C@@H](N)[C@@H]1O` [Example 93, (3R,4R,5S)-3-Amino-1-(3-{[(7-imidazo[1,2-a]pyridin-7-ylquinolin-2-yl)methyl]amino}pyridin-4-yl)-5-methylpiperidin-4-ol], the pIC50 on Pim-2 is 6.00 to 7.00; at Pim-1 it was more than 8.00; at Pim-3 it was not below 8.00.

As to `C[C@H]1CN(c2ccncc2NCc2ccc(F)c(-c3c(F)cc(C4(F)CCOCC4)cc3F)n2)C[C@@H](N)[C@@H]1O` [Example 61, (3R,4R,5S)-3-Amino-1-{3-[({6-[2,6-difluoro-4-(4-fluorotetrahydro-2H-pyran-4-yl)phenyl]-5-fluoropyridin-2-yl}methyl)amino]pyridin-4-yl}-5-methylpiperidin-4-ol], the pIC50 at Pim-2 was not below 7.00; at Pim-1 it was more than 8.00; on Pim-3 it was not below 8.00.

`C[C@H]1CN(c2ccncc2NCc2ccc(F)c(-c3c(F)cc(OCC(C)(C)O)cc3F)n2)C[C@@H](N)[C@@H]1O` [Example 104, (3R,4R,5S)-3-Amino-1-{3-[({6-[2,6-difluoro-4-(2-hydroxy-2-methylpropoxy)phenyl]-5-fluoropyridin-2-yl}methyl)amino]pyridin-4-yl}-5-methylpiperidin-4-ol]: the values for the pIC50 at Pim-2, at Pim-1 and on Pim-3 were 6.00 to 7.00, more than 8.00 and not below 8.00, respectively.

For `C[C@@H]1C[C@H](N)CN(c2c(NCc3ccc(F)c(-c4c(F)cccc4F)n3)cnc3c2CCC3O)C1` (single isomer, unassigned) [Example 87 (Diastereoisomer 1)], the pIC50 was 5.00 to 6.00 at Pim-2, more than 8.00 at Pim-1 and 7.30 to 8.00 at Pim-3.
